The text below walks through data of patent publication US6982334B2, “Crystalline form of (3R,4R)-4-[3-(S)-hydroxy-3-(6-methoxyquinolin-4-yl)propyl]-1-[2-(2-thienylthio)ethyl]piperindine-3-carboxylic acid” (Aventis Pharma S.A., priority 2002, dated 2006).

Series [1] in a line: Loss in mass (dehydration) of monohydrate form C at low humidity. The conditions noted are these: below 50% humidity and between 20° C. and 80° C.; 1 mole of water/mole of the acid. It is filed as physicochemical. Here is the method: According to another aspect of the present invention, form A can also be obtained from another monohydrate crystalline form known hereinbelow as form C. Below 50% humidity and between 20° C. and 80° C., form C undergoes a loss in mass of 3.7% by weight (1 mole of water/mole of the acid). […] Form B is obtained more particularly by heating form C to 70° C. or from form C held at 25° C. at 0% humidity.

Series [2] is classed as physicochemical.
Series [3] in a line: Stability at high temperature of the crystalline form. Conditions: up to its melting point. It is filed as physicochemical.

For `COc1ccc2nccc([C@@H](O)CC[C@@H]3CCN(CCSc4cccs4)C[C@@H]3C(=O)O)c2c1` [Form C, (3R,4R)-4-[3-(S)-hydroxy-3-(6-methoxyquinolin-4-yl)propyl]-1-[2-(2-thienylthio)ethyl]piperidine-3-carboxylic acid], the “loss in mass (dehydration to form B)” value in series [1] is recorded as 3.7 % by weight.
In the case of `COc1ccc2nccc([C@@H](O)CC[C@@H]3CCN(CCSc4cccs4)C[C@@H]3C(=O)O)c2c1` [Form A, (3R,4R)-4-[3-(S)-hydroxy-3-(6-methoxyquinolin-4-yl)propyl]-1-[2-(2-thienylthio)ethyl]piperidine-3-carboxylic acid], the hygroscopicity result in series [2] (solid crystalline form) is recorded as “not hygroscopic”. The state after storage entry in series [2] (storage at 97% relative humidity for 11 weeks at 20° C.) is “still anhydrous and stable”. Further, the “stability at high temperature” value in series [3] is “stable at high temperature, namely up to its melting point”.
